Read-outs that look alike come from different tables or passages of the source. Positions of bridges follow the written chain, without caps; N, C: chain ends. Non-standard residues stand in square brackets, D forms with d. Residues, ends and D or L forms follow the SMILES beside them. Phe(4-Br) = N[C@@H](Cc1ccc(Br)cc1)C(=O)O; dPhe(4-Br) = N[C@H](Cc1ccc(Br)cc1)C(=O)O; d2Nal = N[C@H](Cc1ccc2ccccc2c1)C(=O)O; Cit = NC(=O)NCCC[C@H](N)C(=O)O; Nle = CCCC[C@H](N)C(=O)O; Aib = CC(C)(N)C(=O)O
Columns and labels:
human MC3R = target: T1, human MC3R (Homo sapiens, UniProt P41968); experiment: split-luciferase cAMP sensor assay, agonist mode (measurement window 1), hMC3R; type: cell-based; settings: agonist mode, hMC3R stable cell line; for Emax: read-out: MC3R cAMP % max activation; for EC50: read-out: MC3R cAMP EC50
T1 construct: expressed in transfected cells; host or cells: HEK-293 cells stably expressing the GScAMP22F split-luciferase cAMP sensor (parent reporter line from Promega); MC3R clone generated in-house, G418 selection
Experimental: (§1) The stable cell lines were grown and maintained in selection media consisting of Dulbecco's modified Eagle media (DMEM) with 4.5 g/l D-glucose, and 4 mM L-glutamine (Thermo Fisher Scientific, Waltham, MA), supplemented with 10% fetal bovine serum, 100 units/ml penicillin, 100 μg/ml streptomycin, 2.5 μg/ml amphotericin B, 200 μg/ml hygromycin B (for positive selection of the GScAMP22f luciferase reporter), and Geneticin™ (G418) 700 μg/ml (for MC3R or MC4R selection). Actual serum concentration during the assay is estimated to be about 1%. Cell line identity is routinely verified by qPCR and MC3R-and MC4R-specific oligonucleotides.
(§2) The assay for the determination of the cAMP response in live cells was described previously. […] Cells were seeded at a density of 20,000 cells per well using 384-well poly-D lysine-coated, clear bottom, and black-wall assay plates (Corning Inc. Corning, NJ). Cells were allowed to attach to the plates for 18 to 24 h after which growth media was removed and 20 μl of 4% D-luciferin (Promega) in CO2 independent, serum-free medium (Thermo Fisher Scientific) was added to each well. […] Intracellular cAMP levels were measured using an FDSS 7000EX Functional Drug Screening System (Hamamatsu Photonics, Hamamatsu, Japan) in the Center for Chemical Genomics at the Life Sciences Institute. This instrument allowed the in-line addition of test-peptides and receptor agonists while simultaneously acquiring the luminescence signal from live cells. […] A submaximal forskolin (20 μM) concentration was also included to serve as a normalization reference to account for cell number variations and differences in assay transducer efficiency between cell lines.
(§3) With this set up it was possible to evaluate the direct effect of the test-peptides on the MC3R and MC4R cell lines during measurement window 1, while the antagonist profile in the presence of EC90 α-MSH was determined on measurement window 2. […] EC50 or IC50 potency values were determined by non-linear regression by fitting the data to a sigmoid four-parameter variable slope model using the GraphPad Prism version 8.4 software package (San Diego CA).

human MC4R = target: T2, human MC4R (Homo sapiens, UniProt P32245); experiment: split-luciferase cAMP sensor assay, agonist mode (measurement window 1), hMC4R; type: cell-based; settings: for Emax / EC50: agonist mode, hMC4R stable cell line; for Emax: read-out: MC4R cAMP % max activation; for EC50: read-out: MC4R cAMP EC50
T2 construct: host or cells: HEK-293 cells stably expressing the GScAMP22F split-luciferase cAMP sensor and hMC4R, G418 selection
Experimental: as §1, §2, §3

T1 sequence (P41968 whole entry): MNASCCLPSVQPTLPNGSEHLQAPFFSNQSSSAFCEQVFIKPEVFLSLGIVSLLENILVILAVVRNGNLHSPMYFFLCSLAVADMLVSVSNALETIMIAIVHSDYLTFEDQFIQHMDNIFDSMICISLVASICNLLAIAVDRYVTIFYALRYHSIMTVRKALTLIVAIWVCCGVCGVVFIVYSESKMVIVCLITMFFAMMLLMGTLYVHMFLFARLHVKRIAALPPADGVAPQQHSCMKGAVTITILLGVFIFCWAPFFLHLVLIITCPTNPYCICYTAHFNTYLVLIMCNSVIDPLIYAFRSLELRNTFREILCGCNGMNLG
T2 sequence (P32245 whole entry): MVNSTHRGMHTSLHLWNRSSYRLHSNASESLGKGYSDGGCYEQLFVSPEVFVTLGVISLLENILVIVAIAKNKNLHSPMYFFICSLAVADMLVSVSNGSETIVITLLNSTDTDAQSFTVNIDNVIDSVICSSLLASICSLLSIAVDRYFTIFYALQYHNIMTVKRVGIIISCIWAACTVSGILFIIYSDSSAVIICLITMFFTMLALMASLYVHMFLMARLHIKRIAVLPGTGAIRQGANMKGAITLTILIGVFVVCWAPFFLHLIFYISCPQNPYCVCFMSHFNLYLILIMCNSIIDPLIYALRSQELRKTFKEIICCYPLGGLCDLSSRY

SMILES	Emax (human MC3R) [%]	EC50 (human MC3R) [nM]	MC4R selectivity vs MC1R (human MC4R)	MC4R selectivity vs MC3R (human MC4R)	Emax (human MC4R) [%]	EC50 (human MC4R; unit inferred) [nM]	EC50 (human MC4R) [nM]
CC(=O)N[C@@H](CCCNC(=N)N)C(=O)N[C@H]1CSSC[C@@H](C(N)=O)NC(=O)[C@@H](Cc2c[nH]c3ccccc23)NC(=O)[C@H](CCCNC(N)=O)NC(=O)[C@@H](Cc2ccc(Br)cc2)NC(=O)[C@H](CCCNC(=N)N)NC(=O)[C@@H](C)NC1=O [CTX-1253, Arg-cyclo(Cys-D-Ala-Arg-D-Phe(4-Br)-Cit-D-Trp-Cys)] (Ac-RC[dA]R[dPhe(4-Br)][Cit][dW]C-NH2; disulfide 2-8 (inferred))	9.2	4	0.57	0.53	58		
CC(=O)N[C@@H](CCCNC(=N)N)C(=O)N[C@H]1CSSC[C@@H](C(N)=O)NC(=O)[C@@H](Cc2c[nH]c3ccccc23)NC(=O)[C@H](CCCNC(=N)N)NC(=O)[C@@H](Cc2ccc(Br)cc2)NC(=O)[C@@H](CCCNC(=N)N)NC(=O)[C@@H](C)NC1=O [CTX-1250, Arg-cyclo(Cys-D-Ala-D-Arg-D-Phe(4-Br)-Arg-D-Trp-Cys)] (Ac-RC[dA][dR][dPhe(4-Br)]R[dW]C-NH2; disulfide 2-8 (inferred))	10		1.06	11	8.7		
COc1ccc(C[C@H]2NC(=O)[C@H](CCCNC(N)=O)NC(=O)C(C)(C)NC(=O)[C@@H](NC(=O)[C@H](CCCNC(=N)N)NC(C)=O)CSSC[C@@H](C(N)=O)NC(=O)[C@@H](Cc3c[nH]c4ccccc34)NC(=O)[C@H](CCCNC(=N)N)NC2=O)cc1 [CTX-1600, Arg-cyclo(Cys-Aib-Cit-D-Tyr(4-OMe)-Arg-D-Trp-Cys)] (Ac-RC[Aib][Cit][dY](Me)R[dW]C-NH2; disulfide 2-8)		> 10000	>70	>70	58		
CC(=O)N[C@@H](CCCNC(=N)N)C(=O)N[C@H]1CSSC[C@@H](C(N)=O)NC(=O)[C@@H](Cc2c[nH]c3ccccc23)NC(=O)[C@H](CCCNC(=N)N)NC(=O)[C@H](Cc2ccc(Br)cc2)NC(=O)[C@H](CCCNC(=N)N)NC(=O)[C@@H](C)NC1=O [CTX-1215, Arg-cyclo(Cys-D-Ala-Arg-Phe(4-Br)-Arg-D-Trp-Cys)] (Ac-RC[dA]R[Phe(4-Br)]R[dW]C-NH2; disulfide 2-8 (inferred))	2.1	27	0.07	0.05	56		
CC(=O)N[C@@H](CCCNC(=N)N)C(=O)N[C@H]1CSSC[C@@H](C(N)=O)NC(=O)[C@@H](Cc2ccc3ccccc3c2)NC(=O)[C@H](CCCNC(=N)N)NC(=O)[C@@H](Cc2ccc(Br)cc2)NC(=O)[C@H](CCCNC(=N)N)NC(=O)[C@@H](C)NC1=O [CTX-1254, Arg-cyclo(Cys-D-Ala-Arg-D-Phe(4-Br)-Arg-D-Nal(2′)-Cys)] (Ac-RC[dA]R[dPhe(4-Br)]R[d2Nal]C-NH2; disulfide 2-8)	5.5		0.26	2.19	22		
CC(=O)N[C@@H](CCCNC(=N)N)C(=O)N[C@H]1CSSC[C@@H](C(N)=O)NC(=O)[C@H](Cc2c[nH]c3ccccc23)NC(=O)[C@H](CCCNC(=N)N)NC(=O)[C@@H](Cc2ccc(Br)cc2)NC(=O)[C@H](Cc2c[nH]cn2)NC(=O)[C@@H](C)NC1=O [CTX-2206, Arg-cyclo(Cys-D-Ala-His-D-Phe(4-Br)-Arg-Trp-Cys)]	28	22		7.35	98	3	
CCCC[C@H](NC(=O)[C@H](CCCNC(=N)N)NC(C)=O)C(=O)N[C@H]1CSSC[C@@H](C(N)=O)NC(=O)[C@@H](Cc2c[nH]c3ccccc23)NC(=O)[C@H](CCCNC(=N)N)NC(=O)[C@@H](Cc2ccc(Br)cc2)NC(=O)[C@H](Cc2c[nH]cn2)NC1=O [CTX-1231, Arg-Nle-cyclo(Cys-His-D-Phe(4-Br)-Arg-D-Trp-Cys)] (Ac-R[Nle]CH[dPhe(4-Br)]R[dW]C-NH2; disulfide 3-8 (inferred))	59		0.19	3.04	64		2.3

From patent publication US20240391954A1, “MC4R AGONIST PEPTIDES” (The Regents of the University of Michigan, priority 2021, published 2024)
